In patent US8273774B2, “Phenoxypyridinylamide compounds” (AstraZeneca AB, priority 2008, dated 2012):

Biological target: recombinant Human Phosphodiesterase B2 (PDE4B2) (Homo sapiens, UniProt Q07343)
Assay: Human Phosphodiesterase B2 Radiometric Assay
Assay type: biochemical
Conditions: 0.1 μg/mL recombinant PDE4B2; preincubated at 30 C for 30 min; [3H]cyclic AMP 8 nM, stopped after 20 min; yttrium silicate SPA beads; read-out: PDE4B2 pIC50 (converted)
In short: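 SPA read-out: product 5′AMP binds yttrium silicate beads (added with 18 mM ZnSO4 after 20 min) in preference to [3H]cAMP substrate, given at 8 nM final.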

recombinant Human Phosphodiesterase B2 (PDE4B2), sequence (Q07343 1-564 isoform Q07343-2): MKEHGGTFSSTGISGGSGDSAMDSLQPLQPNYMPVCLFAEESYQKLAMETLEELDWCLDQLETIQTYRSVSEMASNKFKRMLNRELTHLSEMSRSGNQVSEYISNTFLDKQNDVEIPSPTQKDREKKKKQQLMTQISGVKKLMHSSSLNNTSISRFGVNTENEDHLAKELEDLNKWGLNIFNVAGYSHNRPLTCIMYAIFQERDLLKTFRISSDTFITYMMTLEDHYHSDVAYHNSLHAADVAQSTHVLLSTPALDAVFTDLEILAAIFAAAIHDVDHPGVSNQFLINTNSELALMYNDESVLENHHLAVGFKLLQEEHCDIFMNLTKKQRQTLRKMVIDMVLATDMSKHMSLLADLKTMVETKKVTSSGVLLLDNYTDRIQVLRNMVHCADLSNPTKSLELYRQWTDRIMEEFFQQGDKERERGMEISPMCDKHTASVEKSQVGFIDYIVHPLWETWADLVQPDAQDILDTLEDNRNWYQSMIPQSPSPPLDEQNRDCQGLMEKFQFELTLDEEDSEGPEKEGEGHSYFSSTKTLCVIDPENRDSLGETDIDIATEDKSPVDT

First: O=C(N[C@H]1CC[C@@H](NC(=O)c2cc(F)cnc2Oc2cccc(-c3ccc(CCCNCCCO)cc3)c2)CC1)c1cc2n(n1)CCCC2 [Example 128, N-((1s,4s)-4-(5-fluoro-2-(4′-(3-(3-hydroxypropylamino)propyl)biphenyl-3-yloxy)nicotinamido)cyclohexyl)-4,5,6,7-tetrahydropyrazolo[1,5-a]pyridine-2-carboxamide]
Second: Cc1cc(C(=O)N[C@H]2CC[C@@H](NC(=O)c3cc(F)cnc3Oc3cccc(-c4ccc(CCCNCCCO)cc4)c3)CC2)nn1C [Example 152, N-((1s,4s)-4-(1,5-dimethyl-1H-pyrazole-3-carboxamido)cyclohexyl)-5-fluoro-2-(4′-(3-(3-hydroxypropylamino)propyl)biphenyl-3-yloxy)nicotinamide]
The IC50 of the first is 3.2-fold higher: 0.126 nM for the first, 0.0398 nM for the second.

`Cc1cc(C(=O)N[C@H]2CC[C@@H](NC(=O)c3cc(F)cnc3Oc3cccc(-c4ccc(CCCN5CCNCC5)cc4)c3)CC2)nn1C` [Example 130, N-((1s,4s)-4-(1,5-dimethyl-1H-pyrazole-3-carboxamido)cyclohexyl)-5-fluoro-2-(4′-(3-(piperazin-1-yl)propyl)biphenyl-3-yloxy)nicotinamide] and `Cc1cc(C(=O)N[C@H]2CC[C@@H](NC(=O)c3cc(F)cnc3Oc3cccc(-c4ccc(CCCN5CCNC[C@H]5C)cc4)c3)CC2)nn1C` [Example 142, N-((1s,4s)-4-(1,5-dimethyl-1H-pyrazole-3-carboxamido)cyclohexyl)-5-fluoro-2-(4′-(3-((R)-2-methylpiperazin-1-yl)propyl)biphenyl-3-yloxy)nicotinamide] are within 1.5-fold of each other in IC50: 0.0316 nM for the first, 0.0251 nM for the second.

Going from `Cc1nc(C(=O)N[C@H]2CC[C@@H](NC(=O)c3cc(F)cnc3Oc3cccc(-c4cccc(CCCN5CCNCC5)c4)c3)CC2)cs1` [Example 131, N-((1s,4s)-4-(5-fluoro-2-(3′-(3-(piperazin-1-yl)propyl)biphenyl-3-yloxy)nicotinamido)cyclohexyl)-2-methylthiazole-4-carboxamide] to `Cc1nc(C(=O)N[C@H]2CC[C@@H](NC(=O)c3cc(F)cnc3Oc3cccc(-c4ccc(CCCN5CCCNCC5)cc4)c3)CC2)cs1` [Example 135, N-((1s,4s)-4-(2-(4′-(3-(1,4-diazepan-1-yl)propyl)biphenyl-3-yloxy)-5-fluoronicotinamido)cyclohexyl)-2-methylthiazole-4-carboxamide], the IC50 falls from 0.126 nM to 0.0501 nM (2.5-fold).

`O=C(N[C@H]1CC[C@@H](NC(=O)c2cc(F)cnc2Oc2cccc(-c3ccc(CCCN4CCNCC4)cc3)c2)CC1)c1cc2ccccn2n1` [Example 132, N-((1s,4s)-4-(5-fluoro-2-(4′-(3-(piperazin-1-yl)propyl)biphenyl-3-yloxy)nicotinamido)cyclohexyl)pyrazolo[1,5-a]pyridine-2-carboxamide] and `Cc1cccc(C(=O)N[C@H]2CC[C@@H](NC(=O)c3cc(F)cnc3Oc3cccc(-c4ccc(CCCN5CCNCC5)cc4)c3)CC2)n1` [Example 153, N-((1s,4s)-4-(5-fluoro-2-(4′-(3-(piperazin-1-yl)propyl)biphenyl-3-yloxy)nicotinamido)cyclohexyl)-6-methylpicolinamide] are within 1.5-fold of each other in IC50: 0.0398 nM for the first, 0.0316 nM for the second.

`O=C(N[C@H]1CC[C@@H](NC(=O)c2cc(F)cnc2Oc2cccc(-c3ccc(CCCN4CCNCC4)cc3)c2)CC1)c1cc2n(n1)CCC2` [Example 133, N-((1s,4s)-4-(5-fluoro-2-(4′-(3-(piperazin-1-yl)propyl)biphenyl-3-yloxy)nicotinamido)cyclohexyl)-5,6-dihydro-4H-pyrrolo[1,2-b]pyrazole-2-carboxamide] and `O=C(N[C@H]1CC[C@@H](NC(=O)c2cc(F)cnc2Oc2cccc(-c3ccc(CCCN4CCNCC4)cc3)c2)CC1)c1cn2c(n1)CCCC2` [Example 137, N-((1s,4s)-4-(5-fluoro-2-(4′-(3-(piperazin-1-yl)propyl)biphenyl-3-yloxy)nicotinamido)cyclohexyl)-5,6,7,8-tetrahydroimidazo[1,2-a]pyridine-2-carboxamide] are the same in IC50: 0.0501 nM for the first, 0.0501 nM for the second.

`Cc1nc(C(=O)N[C@H]2CC[C@@H](NC(=O)c3cc(F)cnc3Oc3cccc(-c4ccc(CCCN5CCCN(C)CC5)cc4)c3)CC2)cs1` [Example 134, N-((1s,4s)-4-(5-fluoro-2-(4′-(3-(4-methyl-1,4-diazepan-1-yl)propyl)biphenyl-3-yloxy)nicotinamido)cyclohexyl)-2-methylthiazole-4-carboxamide] and `O=C(N[C@H]1CC[C@@H](NC(=O)c2cc(F)cnc2Oc2cccc(-c3ccc(CCCN4CCNCC4)cc3)c2)CC1)c1csc(CO)n1` [Example 141, N-((1s,4s)-4-(5-fluoro-2-(4′-(3-(piperazin-1-yl)propyl)biphenyl-3-yloxy)nicotinamido)cyclohexyl)-2-(hydroxymethyl)thiazole-4-carboxamide] are the same in IC50: 0.0631 nM for the first, 0.0631 nM for the second.

First: Cc1nc(C(=O)N[C@H]2CC[C@@H](NC(=O)c3cc(F)cnc3Oc3cccc(-c4ccc(CCCNCCCO)cc4)c3)CC2)cs1 [Example 136, N-((1s,4s)-4-(5-fluoro-2-(4′-(3-(3-hydroxypropylamino)propyl)biphenyl-3-yloxy)nicotinamido)cyclohexyl)-2-methylthiazole-4-carboxamide]
Second: C[C@@H]1CN(CCCc2ccc(-c3cccc(Oc4ncc(F)cc4C(=O)N[C@H]4CC[C@@H](NC(=O)c5csc(CO)n5)CC4)c3)cc2)C[C@H](C)N1 [Example 149, N-((1s,4s)-4-(2-(4′-(3-((3S,5R)-3,5-dimethylpiperazin-1-yl)propyl)biphenyl-3-yloxy)-5-fluoronicotinamido)cyclohexyl)-2-(hydroxymethyl)thiazole-4-carboxamide]
The IC50 of the first is 3.2-fold higher: 0.1 nM for the first, 0.0316 nM for the second.

`Cc1cc(C(=O)N[C@H]2CC[C@@H](NC(=O)c3cc(F)cnc3Oc3cccc(-c4ccc(CN5CCSCC5)cc4CN4CCOCC4)c3)CC2)nn1C` [Example 138, N-((1s,4s)-4-(1,5-dimethyl-1H-pyrazole-3-carboxamido)cyclohexyl)-5-fluoro-2-(2′-(morpholinomethyl)-4′-(thiomorpholinomethyl)biphenyl-3-yloxy)nicotinamide] and `Cc1csc(C(=O)N[C@H]2CC[C@@H](NC(=O)c3cc(F)cnc3Oc3cccc(-c4ccc(CN5C[C@@H](C)N[C@@H](C)C5)cc4CN4CCOCC4)c3)CC2)n1` [Example 144, N-((1s,4s)-4-(2-(4′-(((3S,5R)-3,5-dimethylpiperazin-1-yl)methyl)-2′-(morpholinomethyl)biphenyl-3-yloxy)-5-fluoronicotinamido)cyclohexyl)-4-methylthiazole-2-carboxamide] are within 1.5-fold of each other in IC50: 0.0251 nM for the first, 0.0316 nM for the second.

Going from `Cc1cc(C(=O)N[C@H]2CC[C@@H](NC(=O)c3cc(F)cnc3Oc3cccc(-c4cccc(CCCN5CCN[C@@H](C)C5)c4)c3)CC2)nn1C` [Example 139, N-((1s,4s)-4-(1,5-dimethyl-1H-pyrazole-3-carboxamido)cyclohexyl)-5-fluoro-2-(3′-(3-((S)-3-methylpiperazin-1-yl)propyl)biphenyl-3-yloxy)nicotinamide] to `C[C@@H]1CN(CCCc2ccc(-c3cccc(Oc4ncc(F)cc4C(=O)N[C@H]4CC[C@@H](NC(=O)c5cc6n(n5)CCC6)CC4)c3)cc2)C[C@H](C)N1` [Example 140, N-((1s,4s)-4-(2-(4′-(3-((3S,5R)-3,5-dimethylpiperazin-1-yl)propyl)biphenyl-3-yloxy)-5-fluoronicotinamido)cyclohexyl)-5,6-dihydro-4H-pyrrolo[1,2-b]pyrazole-2-carboxamide], the IC50 falls from 0.0794 nM to 0.0316 nM (2.5-fold).

`C[C@@H]1CN(CCCc2ccc(-c3cccc(Oc4ncc(F)cc4C(=O)N[C@H]4CC[C@@H](NC(=O)c5cc6ncccn6n5)CC4)c3)cc2)C[C@H](C)N1` [Example 143, N-((1s,4s)-4-(2-(4′-(3-((3S,5R)-3,5-dimethylpiperazin-1-yl)propyl)biphenyl-3-yloxy)-5-fluoronicotinamido)cyclohexyl)pyrazolo[1,5-a]pyrimidine-2-carboxamide] and `C[C@@H]1CN(CCCc2ccc(-c3cccc(Oc4ncc(F)cc4C(=O)N[C@H]4CC[C@@H](NC(=O)c5nc(CO)cs5)CC4)c3)cc2)C[C@H](C)N1` [Example 150, N-((1s,4s)-4-(2-(4′-(3-((3S,5R)-3,5-dimethylpiperazin-1-yl)propyl)biphenyl-3-yloxy)-5-fluoronicotinamido)cyclohexyl)-4-(hydroxymethyl)thiazole-2-carboxamide] are the same in IC50: 0.0794 nM for the first, 0.0794 nM for the second.

Compared with `C[C@@H]1CN(Cc2ccc(-c3cccc(Oc4ncc(F)cc4C(=O)N[C@H]4CC[C@@H](NC(=O)c5cccc6cccnc56)CC4)c3)c(CN3CCOCC3)c2)C[C@H](C)N1` [Example 146, N-((1s,4s)-4-(2-(4′-(((3S,5R)-3,5-dimethylpiperazin-1-yl)methyl)-2′-(morpholinomethyl)biphenyl-3-yloxy)-5-fluoronicotinamido)cyclohexyl)quinoline-8-carboxamide], `C[C@@H]1CN(Cc2ccc(-c3cccc(Oc4ncc(F)cc4C(=O)N[C@H]4CC[C@@H](NC(=O)c5ccc6ccccc6n5)CC4)c3)c(CN3CCOCC3)c2)C[C@H](C)N1` [Example 147, N-((1s,4s)-4-(2-(4′-(((3S,5R)-3,5-dimethylpiperazin-1-yl)methyl)-2′-(morpholinomethyl)biphenyl-3-yloxy)-5-fluoronicotinamido)cyclohexyl)quinoline-2-carboxamide] is 1.6-fold higher in IC50: 0.0316 nM for the first, 0.0501 nM for the second.

Going from `Cc1csc(C(=O)N[C@H]2CC[C@@H](NC(=O)c3cc(F)cnc3Oc3cccc(-c4ccc(CCCN5CCNCC5)cc4)c3)CC2)n1` [Example 148, N-((1s,4s)-4-(5-fluoro-2-(4′-(3-(piperazin-1-yl)propyl)biphenyl-3-yloxy)nicotinamido)cyclohexyl)-4-methylthiazole-2-carboxamide] to `C[C@@H]1CN(Cc2cccc(-c3cccc(Oc4ncc(F)cc4C(=O)N[C@H]4CC[C@@H](NC(=O)c5cc6ccccn6n5)CC4)c3)c2)C[C@H](C)N1` [Example 151, N-((1s,4s)-4-(2-(3′-(((3S,5R)-3,5-dimethylpiperazin-1-yl)methyl)biphenyl-3-yloxy)-5-fluoronicotinamido)cyclohexyl)pyrazolo[1,5-a]pyridine-2-carboxamide], the IC50 rises from 0.0398 nM to 0.0631 nM (1.6-fold).
